From US5602101A, “Antithrombotic agents” (priority 1994, dated 1997)

Key:
Assay type in all cases: biochemical
[1] = test system: Human Plasma; assay: Anticoagulation in human plasma, prothrombin time (PT); conditions: concentration required to double the PT
Method: (§1) Dog plasma and rat plasma are obtained from conscious mixed-breed hounds (either sex, Hazelton-LRE, Kalamazoo, Mich., U.S.A.) or from anesthetized male Sprague-Dawley rats (Harlan Sprague-Dawley, Inc., Indianapolis, Ind., U.S.A.) by venipuncture into 3.8 percent citrate. Fibrinogen is prepared from in-date ACD human blood as the fraction I-2 according to previous procedures and specifications. Smith, Biochem. Chem. […] Human fibrinogen is also purchased as 98 percent pure/plasmin free from American Diagnostics, Greenwich, Conn. Coagulation reagents ACTIN, Thromboplastin, and Human plasma are from Baxter Healthcare Corp., Dade Division, Miami, Fla. Bovine thrombin from Parke-Davis (Ann Arbor, Mich.) is used for coagulation assays in plasma. Coagulation assay procedures are as previously described. Smith, et al., Thrombosis Research, 5, 163-174 (1988). A CoAScreener coagulation instrument (American LABor, Inc.) is used for all coagulation assay measurements. The prothrombin time (PT) is measured by adding 0.05 ml saline and 0.05 ml Thromboplastin-C reagent to 0.05 ml test plasma. The activated partial thromboplastin time (APTT) is measured by incubation of 0.05 ml test plasma with 0.05 ml Actin reagent for 120 seconds followed by 0.05 ml CaCl2 (0.02M). […] The compounds of formula I are added to human or animal plasma over a wide range of concentrations to determine prolongation effects on the APTT, PT, and TT assays. Linear extrapolations are performed to estimate the concentrations required to double the clotting time for each assay.

[2] = target: T1, factor Xa (Homo sapiens, UniProt P00742); assay: Serine protease inhibition, factor Xa (chromogenic substrate), Kass; conditions: substrate N-Benzoyl-Ile-Glu-Gly-Arg-p-nitroanilide
T1 construct: Human factors X, Xa, IXa, XIa, and xIIa are purchased from Enzyme Research Laboratories; purchased Enzyme Research Laboratories, South Bend, Ind
Method: (§2) The assay is carried out by mixing 50 μl buffer (0.03M Tris, 0.15M NaCl, pH 7.4), 25 μl of human thrombin solution (purified human thrombin Enzyme Research Laboratories, South Bend, Ind.) at 8 NIH units/ml and 25 μl of test compound in a solvent (50% aqueous methanol (v:v)). Then 150 μl of an aqueous solution of the chromogenic substrate (at 0.25 mg/ml) are added and the rates of hydrolysis of the substrate are measured by monitoring the reactions at 405 nm for the release of p-nitroaniline. Standard curves are constructed by plotting free thrombin concentration against hydrolysis rate. The hydrolysis rates observed with test compounds are then converted to "free thrombin" values in the respective assays by use of the standard curves. The bound thrombin (bound to test compound) is calculated by subtracting the amount of free thrombin observed in each assay from the known initial amount of thrombin used in the assay. The amount of free inhibitor in each assay is calculated by subtracting the number of moles of bound thrombin from the number of moles of added inhibitor (test compound).
(§3) Kass is calculated for a range of concentrations of test compounds and the mean value is reported in units of liter per mole.
(§4) By substantially following the procedures described above for human thrombin, and using other human blood coagulation system serine proteases, and using fibrinolytic system serine proteases, with the appropriate chromogenic substrate, identified below, selectivity of the compounds of the present invention with respect to the coagulation factor serine proteases and to the fibrinolytic serine proteases are evaluated as well as their substantial lack of interference with human plasma clot fibrinolysis.
(§5) Human factors X, Xa, IXa, XIa, and xIIa are purchased from Enzyme Research Laboratories, South Bend, Ind.; human urokinase from Leo Pharmaceuticals, Denmark; and recombinant activated Protein C (aPC) is prepared at Eli Lilly and Co. substantially according to U.S. Pat. No. 4,981,952 incorporated by reference herein in its entirety. Chromogenic substrates: N-Benzoyl-Ile-Glu-Gly-Arg-p-nitroanilide (for factor Xa); N-Cbz-D-Arg-Gly-Arg-p-nitroanilide (for factor IXa assay as the factor Xa substrate) pyroglutamyl-Pro-Arg-p-nitroanilide (for factor XIa and for aPC); H-D-Pro-Phe-Arg-p-nitroanilide (for factor XIIa); and pyroglutamyl-Gly-Arg-p-nitroanilide (for urokinase); are purchased from KabiVitrum, Stockholm, Sweden, or from Midwest Biotech, Fishers, Indiana. Bovine trypsin is purchased from Worthington Biochemicals, Freehold, N.J., and human plasma kallikrein from Kabi Vitrum, Stockholm, Sweden. N-Benzoyl-Phe-Val-Arg-p-nitroanilide, the substrate for human thrombin and for trypsin, is synthesized according to procedures described above for the compounds of the present invention, known methods of peptide coupling from commercially available reactants, or was purchased from Midwest Biotech, Fishers, Ind. Human plasmin is purchased from Boehringer Mannheim, Indianapolis, Ind.; nt-PA is purchased as single chain activity reference from American Diagnostics, Greenwich, Conn.; modified-t-PA6 (mt-PA6) is prepared at Eli Lilly and Company by procedure known in the art (See, Burck, et al., J. Biol. Chem., 265, […] (1990). Plasmin chromogenic substrate H-D-Val-Leu-Lys-p-nitroanilide and tissue plasminegen activator (t-PA) substrate H-D-Ile-Pro-Arg-p-nitroanilide are purchased from Kabi Vitrum, Stockholm, Sweden.

[3] = test system: Human Plasma; assay: Anticoagulation in human plasma, activated partial thromboplastin time (APTT); conditions: concentration required to double the APTT
Method: as §1

[4] = target: T2, Bovine trypsin (Bos taurus, UniProt P00760); assay: Serine protease inhibition, trypsin (chromogenic substrate), Kass; conditions: substrate N-Benzoyl-Phe-Val-Arg-p-nitroanilide
T2 construct: Bovine trypsin is purchased from Worthington Biochemicals, Freehold, N.J; purchased Worthington Biochemicals, Freehold, N.J
T2 sequence (P00760 24-246): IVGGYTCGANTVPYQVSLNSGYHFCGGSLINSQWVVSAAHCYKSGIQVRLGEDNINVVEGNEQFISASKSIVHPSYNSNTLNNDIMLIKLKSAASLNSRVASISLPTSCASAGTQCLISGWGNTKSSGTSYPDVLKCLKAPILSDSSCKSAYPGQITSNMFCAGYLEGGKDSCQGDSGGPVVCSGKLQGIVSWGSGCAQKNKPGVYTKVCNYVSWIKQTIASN
Method: as §2, §3, §4, §5

[5] = target: T3, human thrombin (Homo sapiens, UniProt P00734); assay: Inhibition of amidase activity of thrombin (chromogenic substrate), Kass; conditions: substrate N-benzoyl-Phe-Val-Arg-p-nitroanilide, pH 7.4
T3 construct: purified human thrombin Enzyme Research Laboratories, South Bend, Ind; purchased Enzyme Research Laboratories, South Bend, Ind
Method: as §2
The Kass value is the hypothetical equilibrium constant for the reaction between thrombin and the test compound (I). [drawing 53]
as §3

[6] = target: T4, Human plasmin (Homo sapiens, UniProt P00747); assay: Serine protease inhibition, plasmin (chromogenic substrate), Kass; conditions: substrate H-D-Val-Leu-Lys-p-nitroanilide
T4 construct: Human plasmin is purchased from Boehringer Mannheim, Indianapolis, Ind; purchased Boehringer Mannheim, Indianapolis, Ind
Method: as §2, §3, §4, §5

[7] = target: T5, tissue plasminogen activator (t-PA) (Homo sapiens, UniProt P00750); assay: Serine protease inhibition, t-PA (chromogenic substrate), Kass; conditions: substrate H-D-Ile-Pro-Arg-p-nitroanilide
T5 construct: purchased American Diagnostics, Greenwich, Conn
Method: as §2, §3, §4, §5

[8] = test system: Human Plasma; assay: Anticoagulation in human plasma, thrombin time (TT); conditions: concentration required to double the thrombin time
Method: as §1

T4 sequence (P00747 581-810 limits assumed): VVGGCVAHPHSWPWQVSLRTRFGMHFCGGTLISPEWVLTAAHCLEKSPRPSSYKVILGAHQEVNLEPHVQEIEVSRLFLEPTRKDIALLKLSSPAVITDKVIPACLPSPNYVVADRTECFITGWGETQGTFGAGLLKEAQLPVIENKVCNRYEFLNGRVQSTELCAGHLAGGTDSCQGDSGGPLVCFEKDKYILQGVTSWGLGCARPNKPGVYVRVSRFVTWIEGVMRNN
T4 sequence (P00747 97-580 partner limits assumed): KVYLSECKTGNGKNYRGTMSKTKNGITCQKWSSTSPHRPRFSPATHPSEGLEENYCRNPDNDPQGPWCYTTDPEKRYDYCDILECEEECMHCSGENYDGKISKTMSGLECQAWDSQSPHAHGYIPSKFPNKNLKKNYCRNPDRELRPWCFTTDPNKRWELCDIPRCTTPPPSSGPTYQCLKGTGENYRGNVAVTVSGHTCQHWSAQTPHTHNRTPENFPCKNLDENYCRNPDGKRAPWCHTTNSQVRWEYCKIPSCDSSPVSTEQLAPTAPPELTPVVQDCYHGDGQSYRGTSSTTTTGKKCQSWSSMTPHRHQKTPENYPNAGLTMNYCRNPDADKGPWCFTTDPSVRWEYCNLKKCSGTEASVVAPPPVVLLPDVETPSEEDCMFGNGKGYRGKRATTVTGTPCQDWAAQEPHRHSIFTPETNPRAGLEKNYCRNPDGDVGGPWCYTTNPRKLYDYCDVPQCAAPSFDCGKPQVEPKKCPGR
T1 sequence (P00742 235-488 limits assumed): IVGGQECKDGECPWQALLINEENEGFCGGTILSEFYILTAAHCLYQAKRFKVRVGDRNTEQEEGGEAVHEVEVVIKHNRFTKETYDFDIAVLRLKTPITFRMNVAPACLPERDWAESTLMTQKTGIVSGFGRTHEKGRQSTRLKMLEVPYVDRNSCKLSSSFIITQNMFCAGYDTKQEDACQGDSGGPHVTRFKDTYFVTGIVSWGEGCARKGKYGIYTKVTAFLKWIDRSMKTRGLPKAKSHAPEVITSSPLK
T1 sequence (P00742 41-179 partner limits assumed): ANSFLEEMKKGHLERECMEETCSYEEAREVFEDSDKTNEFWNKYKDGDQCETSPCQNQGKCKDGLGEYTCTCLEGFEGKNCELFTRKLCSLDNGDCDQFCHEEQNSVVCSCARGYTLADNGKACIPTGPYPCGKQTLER
T5 sequence (P00750 36-562): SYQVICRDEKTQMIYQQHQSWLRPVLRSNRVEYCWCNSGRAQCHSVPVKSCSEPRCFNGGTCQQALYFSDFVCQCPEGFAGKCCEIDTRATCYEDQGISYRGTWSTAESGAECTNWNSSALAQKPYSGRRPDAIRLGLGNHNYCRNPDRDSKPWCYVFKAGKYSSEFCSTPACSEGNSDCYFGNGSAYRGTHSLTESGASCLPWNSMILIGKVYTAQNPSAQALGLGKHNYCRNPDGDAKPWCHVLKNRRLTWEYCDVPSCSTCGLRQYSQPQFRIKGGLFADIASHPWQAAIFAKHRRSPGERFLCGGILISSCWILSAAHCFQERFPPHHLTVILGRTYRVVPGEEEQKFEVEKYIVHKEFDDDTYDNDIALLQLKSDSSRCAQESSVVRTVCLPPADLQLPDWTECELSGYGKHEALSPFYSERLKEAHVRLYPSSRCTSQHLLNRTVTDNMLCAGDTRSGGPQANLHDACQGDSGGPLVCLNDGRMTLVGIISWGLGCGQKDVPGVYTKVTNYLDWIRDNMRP

SMILES | 2 × Clotting time, PT [1] | Enzyme Kass, Xa [2] [L/mol × 10^6] | 2 × Clotting time, APTT [3] | Enzyme Kass, Trypsin [4] [L/mol × 10^6] | Enzyme Kass, Human Thrombin [5] [L/mol × 10^6] | Enzyme Kass, Plasmin [6] [L/mol × 10^6] | Enzyme Kass, t-Pa [7] [L/mol × 10^6] | 2 × Clotting time, TT [8] [ng/mL]
Cl.NC(N)=NCCCC(C=O)NC(=O)C1CCCN1C(=O)C(Cc1ccccc1)NC(=O)Cc1cccnc1 [Example 4, N-(α-(3-pyridyl)-acetyl)-D-Phe-Pro-Arg-H-HCl] | 3,400 ng/ML | 0.067 | 2,300 ng/ML | 5.2 | 13 | 0.27 | 0.22 | 150
Cl.Cn1c(C(=O)NC(CC2CCCCC2)C(=O)N2CCCC2C(=O)NC(C=O)CCCN=C(N)N)cc2ccccc21 [Example 5, NMI-D-Cha-Pro-Arg-H.HCl] | 2,500 ng/ML | 4.6 | 1,000 ng/ML | 7.9 | 320 | 25 | 1.1 | 110
Cl.NC(N)=NCCCC(C=O)NC(=O)C1CCCN1C(=O)C(CC1CCCCC1)NC(=O)c1ccc2ccccc2n1 [Example 6, N-(quinolinyl-2-carbonyl)-D-Cha-Pro-Arg-H-HCl] | 2,700 ng/ML | 0.83 | 1,400 ng/ML | 2.5 | 200 | 2.5 | 0.088 | 97
COc1ccc(OC)c(S(=O)(=O)N[C@H](Cc2ccccc2)C(=O)N2CCC[C@H]2C(=O)N[C@H](C=O)CCCNC(=N)N)c1.Cl [Example 15, 2,5-(MeO)2 -PhSO2 -D-Phe-Pro-Arg-H-HCl] | 2,000 ng/ML | 8.8 | 550 ng/mL | 150 | 200 | 9.5 | 1.5 | 92
Cc1noc(C)c1S(=O)(=O)N[C@H](Cc1ccccc1)C(=O)N1CCC[C@H]1C(=O)N[C@H](C=O)CCCNC(=N)N.Cl [Example 16, 3,5-Me-4-isoxazolyl-SO2 -D-Phe-Pro-Arg-H.HCl] | 1,300 ng/ML | 11 | 430 ng/mL | 200 | 260 | 18 | 2.7 | 33
Cl.N=C(N)NCCC[C@@H](C=O)NC(=O)[C@@H]1CCCN1C(=O)[C@@H](Cc1ccccc1)NCC(=O)O [Example 35, HOOCCH2 -D-Phe-Pro-ArgH.HCl] | 1129 ng/mL | 3.3 | 723 ng/mL |  | 695 |  |  | 14
Cl.N=C(N)NCCC[C@@H](C=O)NC(=O)[C@@H]1CCCN1C(=O)[C@@H](CC1CCCCC1)NCC(=O)O [Example 36, HOCCH2 -D-Cha-Pro-ArgH.HCl] | 695 ng/mL | 40.5 | 284 ng/mL |  | 556 |  |  | 9
